Laboratory results from patent US7714014B2, “Targeting GLI proteins in human cancer by small molecules” (The Regents of the University of California, priority 2005, dated 2010).

Tests used:
A549 (NSCLC) = experiment: Apoptosis analysis (Annexin V FITC, flow cytometry); assay type: cell-based, human; conditions: 3 days
Experimental: (§1) Apoptosis was analyzed by using an Annexin V FITC Apoptosis Detection Kit (Biosource, Camarillo, Calif.), according to the manufacturer's protocol. After treatment with different small molecule compounds at various concentrations for about 3 days, cells were harvested by trypsinization, stained and immediately analyzed by flow cytometry (FACScan; Decton Dickinson, Franklin Lake, N.J.). Early apoptotic cells with exposed phosphatidylserine but intact cell membranes will bind to Annexin V-FITC, but not propidium iodide (PI). Cells in necrotic or late apoptotic stages will be labeled with both Annexin V-FITC and PI. “% apoptotic cells” or “% apoptosis” refers to the combined early and late apoptotic cells.
Flow cytometry was also used to examine apoptosis in several NSCLC cell lines after treatment with small molecule compounds of the invention.
Dose titration experiments of small molecule compound FN1-8 was performed using the NSCLC cell lines A549, H358, and H322. A 549, H358, and H322 cells were plated in 6-well plates and incubated with DM SO (control) or 7.5 μM, 10 μM, 15 μM, 20 μM, and 30 μM of FN1-8, respectively, for 3 days. A dramatic and dose-dependent cell killing in these cell lines was observed when FN1-8 was added at 15 μM or more. FN1-8 induced cell killing in A549 and […] at slightly lower concentrations than in H322 cells (data not shown). After 3 days, approximately 28% of the A549 cells and 58% of H358 underwent apoptosis when incubated with 20 μM FN1-8 (Table 3).

LOX (melanoma) = experiment: as above; assay type: cell-based, human; conditions: 3 days
Experimental: as §1
The cell killing of LOX cells by treatment with small molecule compounds FN1-5 and FN1-8 was analyzed in greater detail using various concentrations of these two compounds and flow cytometry. […] (Tables 2 and 3).

LnCAP (prostate cancer) = experiment: as above; assay type: cell-based, human; conditions: 3 days
Experimental: as §1
Flow cytometry was also used to examine apoptosis induced by molecule compounds FN1-5 and FN1-8 in LnCAP cells. […] For example, app.

Normal renal cells = experiment: as above; assay type: cell-based, human
Experimental: as §1
In addition, apoptosis induction after the treatment of different doses of FN1-5 (30 and 50 μM) or FN1-8 (10, 30, and 50 μM) in normal human renal cells was examined by flow cytometry.

[1] = tested on: human gastric cancer cell lines NUGC3, MNK28, and AGS; experiment: Cell survival assay (crystal violet); assay type: cell-based; conditions: for cell killing: 50 μM
Experimental: (§2) Typically, the small molecule compounds of the present invention were dissolved in DMSO at a concentration of 30 mM. The small molecule compounds were then tested under cell culture conditions at different concentrations ranging from 0, 10, 30, 50, to 100 uM. To determine cell survival after treatment, the cells were incubated with the small molecule compounds in 6-well plates for about 3 days. After removal of the cell culture medium, 1-ml of 0.5% crystal violet solution (prepared in 20% ethanol and 20% methanol) was added to stain the cells for 5 min. Then the crystal violet solution was rinsed clean with tap water. Cell survival was estimated based on the density of crystal stained plates.
The cell-based cytotoxicity assay described herein was used to determine the effect of small molecule compounds FN1-5 and FN1-8 in the human gastric cancer cell lines NUGC3, MNK28, and AGS. Viability of these cells was analyzed after treatment with 10, 30 and 50 μM FN1-5 or FN1-8.

[2] = tested on: human sarcoma cell lines MG63 and MNNG; experiment: Cell survival assay (crystal violet); assay type: cell-based; conditions: FN1-8 at 50 μM; 10, 30 and 50 μM tested
Experimental: as §2
The cell-based cytotoxicity assay described herein was used to determine the effect of small molecule compounds FN1-5 and FN1-8 in the human sarcoma cell lines MG63 and MNNG. Viability of these cells was analyzed after treatment with 10, 30 and 50 μM FN1-5 or FN1-8.

[3] = tested on: human hepatocellular carcinoma cell lines HEPG2 and SK-Hep-1; experiment: Cell survival assay (crystal violet); assay type: cell-based; conditions: for cell killing: 50 μM
Experimental: as §2
The cell-based cytotoxicity assay described herein was used to determine the effect of small molecule compounds FN1-5 and FN1-8 in the human hepatocellular carcinoma cell lines HEPG2 and SK-Hep-1. Viability of these cells was analyzed after treatment with 10, 30 and 50 μM FN1-5 or FN1-8.

[4] = tested on: human Gremlin promoter in HEK 293T cells; experiment: Gremlin promoter-luciferase reporter assay; assay type: cell-based; conditions: 30 μM, 18-24 hours
Experimental: One day before transfection, cells (1×10^5) were plated in 12-well plates with growth medium without antibiotics. When cells reached 80-90% of confluence they were co-transfected using 0.5 μg of each promoter construct in pGL3Basic vector and 0.025 μg pRL-TK Vector (Promega; Madison, Wis.) containing Renilla Luciferase as an internal control for the transformation efficiency. Lipofectamine 2000™ (Invitrogen Life Technologies) was used to mediate transfection for about 6 hours. Then the medium was replaced with fresh medium containing various small molecule compounds at a concentration of 30 μM, and the resulting cells were cultured for an additional 18-24 hours and subjected to luciferase assay. Briefly, cells were lysed in a lysis buffer and Firefly and Renilla Luciferase activities in cells of each well, were measured using Dual-Luciferase Assay System (Promega) and an illuminometer. The measured luciferase activities were normalized to pRL-TK Vector activity and were given relative to the basal activity of empty pGL3-Basic Vector, which was set to unity. The data shown represent mean values (±S.D.). All measurements were performed in triplicate and repeated in at least three independent experiments. […]

Structure (SMILES)	% of apoptotic cells (A549 (NSCLC); A549, 10 μM)	% of apoptotic cells (LOX (melanoma); 10 μM)	% of apoptotic cells (LOX (melanoma); 30 μM)	% of apoptotic cells (LOX (melanoma); 50 μM)	% of apoptotic cells (LnCAP (prostate cancer); 10 μM)	% of apoptotic cells (LnCAP (prostate cancer); 30 μM)	% of apoptotic cells (LnCAP (prostate cancer); 50 μM)	% of apoptotic cells (Normal renal cells; 10 μM)	% of apoptotic cells (Normal renal cells; 30 μM)	% of apoptotic cells (Normal renal cells; 50 μM)	cell killing potency compared with FN1-5 [1]	cell killing [1]	cell killing [2]	cell killing potency compared with FN1-5 [3]	cell killing [3]	Gremlin promoter activity [4]	% of apoptotic cells (A549 (NSCLC); A549, 100 μM)
O=C(NCCc1ccc(O)cc1)C1C(c2ccccc2)=NN(c2ccccc2)C1c1ccccc1 (centres unmarked) [FN1-8, N-(2-(4-Hydroxyphenyl)ethyl)-1,3,5-triphenyl-4,5-dihydro-pyrazole-4-carboxyamide]	12.5%	16.7%	19.0%	78.9%	6.9%	11.0%	41.5%	3.1%	4.1%	6.2%	more potent	dramatic cell killing	dramatic cell killing	more potent	dramatic cell killing	inactive	–
O=C(NCCCCCO)C1C(c2ccccc2)=NN(c2ccccc2)C1c1ccccc1 (centres unmarked) [FN1-5, N-(5-Hydroxypentyl)-1,3,5-triphenyl-4,5-dihydro-pyrazole-4-carboxyamide]	9.4%	14.0%	16.6%	58.1%	–	7.7%	16.3%	–	5.6%	6.6%	–	dramatic cell killing	No significant cell killing	–	dramatic cell killing	inactive	30.0%
